The data set concerns CCRIS mutagenicity, Ames/micronucleus/aberration tests. As to the kind of experiment: CCRIS mutagenicity studies.
Where [1] appears, read: Test System: AMES SALMONELLA TYPHIMURIUM, Strain/Indicator: TA100, Metabolic Activation: NONE, Method: STANDARD PLATE.
[2] abbreviates: Test System: AMES SALMONELLA TYPHIMURIUM, Strain/Indicator: TA98, Metabolic Activation: NONE, Method: PREINCUBATION
[3] abbreviates: Test System: AMES SALMONELLA TYPHIMURIUM, Strain/Indicator: TA100, Metabolic Activation: NONE, Method: PREINCUBATION

The source made the active and inactive calls. How the calls were made is not given here.

For 5 molecules, mutagenic call results are on record in PubChem BioAssay AID1259407 (Chemical Carcinogenesis Research Information System (CCRIS), 2018).

As to `O[C@@H]1C=Cc2c(ccc3c2ccc2ccccc23)[C@H]1O`, the mutagenic call was “inactive; negative” (Test System: AMES SALMONELLA TYPHIMURIUM, Strain/Indicator: TA98, Metabolic Activation: NONE, Method: STANDARD PLATE); “active; positive” (Test System: AMES SALMONELLA TYPHIMURIUM, Strain/Indicator: TA100, Metabolic Activation: EPITHELIAL CELL-MEDIATED, AROCLOR 1254, Method: PREINCUBATION); “inactive; negative” (Test System: AMES SALMONELLA TYPHIMURIUM, Strain/Indicator: TA100, Metabolic Activation: EPITHELIAL CELL-MEDIATED, Method: PREINCUBATION); “active; positive” (Test System: AMES SALMONELLA TYPHIMURIUM, Strain/Indicator: TA100, Metabolic Activation: KUPFFER CELL-MEDIATED, AROCLOR 1254, Method: PREINCUBATION); “inactive; negative” (Test System: AMES SALMONELLA TYPHIMURIUM, Strain/Indicator: TA100, Metabolic Activation: KUPFFER CELL-MEDIATED, Method: PREINCUBATION); “inactive; negative” under setting [1]. For the same molecule, the mutagenic call by setting is: (Test System: AMES SALMONELLA TYPHIMURIUM, Strain/Indicator: TA100, Metabolic Activation: PARENCHYMAL CELL-MEDIATED, AROCLOR 1254, Method: PREINCUBATION) “active; positive”; (Test System: AMES SALMONELLA TYPHIMURIUM, Strain/Indicator: TA100, Metabolic Activation: PARENCHYMAL CELL-MEDIATED, NADPH, Method: PREINCUBATION) “active; positive”; (Test System: AMES SALMONELLA TYPHIMURIUM, Strain/Indicator: TA100, Metabolic Activation: PARENCHYMAL CELL-MEDIATED, Method: PREINCUBATION) “inactive; negative”; (Test System: AMES SALMONELLA TYPHIMURIUM, Strain/Indicator: TA100, Metabolic Activation: RAT, LIVER, S-9, AROCLOR 1254, Method: STANDARD PLATE) “active; positive”.

Turning to `O=C1C(=O)c2ccccc2-c2ccccc21`, the mutagenic call (Test System: AMES SALMONELLA TYPHIMURIUM, Strain/Indicator: TA97A, Metabolic Activation: NONE, Method: PREINCUBATION) is “inactive; negative”; the mutagenic call under setting [2] is “inactive; negative”; the mutagenic call under setting [3] was “inactive; negative”; the mutagenic call (Test System: AMES SALMONELLA TYPHIMURIUM, Strain/Indicator: TA102, Metabolic Activation: NONE, Method: PREINCUBATION) is “inactive; negative”; the mutagenic call (Test System: AMES SALMONELLA TYPHIMURIUM, Strain/Indicator: TA104, Metabolic Activation: NONE, Method: PREINCUBATION) is “inactive; negative”.

Turning to `Nc1ccccc1C(=O)OC1CCCCC1`, the mutagenic call is, setting by setting: (Test System: AMES SALMONELLA TYPHIMURIUM, Strain/Indicator: TA97, Metabolic Activation: HAMSTER, LIVER, S-9, AROCLOR 1254 (10%), Method: PREINCUBATION) “inactive; negative”; (Test System: AMES SALMONELLA TYPHIMURIUM, Strain/Indicator: TA97, Metabolic Activation: HAMSTER, LIVER, S-9, AROCLOR 1254 (30%), Method: PREINCUBATION) “inactive; negative”; (Test System: AMES SALMONELLA TYPHIMURIUM, Strain/Indicator: TA97, Metabolic Activation: NONE, Method: PREINCUBATION) “inactive; negative”; (Test System: AMES SALMONELLA TYPHIMURIUM, Strain/Indicator: TA97, Metabolic Activation: RAT, LIVER, S-9, AROCLOR 1254 (10%), Method: PREINCUBATION) “inactive; negative”; (Test System: AMES SALMONELLA TYPHIMURIUM, Strain/Indicator: TA97, Metabolic Activation: RAT, LIVER, S-9, AROCLOR 1254 (30%), Method: PREINCUBATION) “inactive; negative”; (Test System: AMES SALMONELLA TYPHIMURIUM, Strain/Indicator: TA98, Metabolic Activation: HAMSTER, LIVER, S-9, AROCLOR 1254 (10%), Method: PREINCUBATION) “inactive; negative”. Moreover, the mutagenic call was “inactive; negative” (Test System: AMES SALMONELLA TYPHIMURIUM, Strain/Indicator: TA98, Metabolic Activation: HAMSTER, LIVER, S-9, AROCLOR 1254 (30%), Method: PREINCUBATION); “inactive; negative” under setting [2]; “inactive; negative” (Test System: AMES SALMONELLA TYPHIMURIUM, Strain/Indicator: TA98, Metabolic Activation: RAT, LIVER, S-9, AROCLOR 1254 (10%), Method: PREINCUBATION); “inactive; negative” (Test System: AMES SALMONELLA TYPHIMURIUM, Strain/Indicator: TA98, Metabolic Activation: RAT, LIVER, S-9, AROCLOR 1254 (30%), Method: PREINCUBATION); “inactive; negative” (Test System: AMES SALMONELLA TYPHIMURIUM, Strain/Indicator: TA100, Metabolic Activation: HAMSTER, LIVER, S-9, AROCLOR 1254 (10%), Method: PREINCUBATION); “inactive; negative” (Test System: AMES SALMONELLA TYPHIMURIUM, Strain/Indicator: TA100, Metabolic Activation: HAMSTER, LIVER, S-9, AROCLOR 1254 (30%), Method: PREINCUBATION). In addition, the mutagenic call under setting [3] is “inactive; negative”; the mutagenic call (Test System: AMES SALMONELLA TYPHIMURIUM, Strain/Indicator: TA100, Metabolic Activation: RAT, LIVER, S-9, AROCLOR 1254 (10%), Method: PREINCUBATION) is “inactive; negative”; the mutagenic call (Test System: AMES SALMONELLA TYPHIMURIUM, Strain/Indicator: TA100, Metabolic Activation: RAT, LIVER, S-9, AROCLOR 1254 (30%), Method: PREINCUBATION) is “inactive; negative”; the mutagenic call (Test System: AMES SALMONELLA TYPHIMURIUM, Strain/Indicator: TA1535, Metabolic Activation: HAMSTER, LIVER, S-9, AROCLOR 1254 (10%), Method: PREINCUBATION) was “inactive; negative”; the mutagenic call (Test System: AMES SALMONELLA TYPHIMURIUM, Strain/Indicator: TA1535, Metabolic Activation: HAMSTER, LIVER, S-9, AROCLOR 1254 (30%), Method: PREINCUBATION) is “inactive; negative”; the mutagenic call (Test System: AMES SALMONELLA TYPHIMURIUM, Strain/Indicator: TA1535, Metabolic Activation: NONE, Method: PREINCUBATION) was “inactive; negative”. In addition, the mutagenic call by setting is: (Test System: AMES SALMONELLA TYPHIMURIUM, Strain/Indicator: TA1535, Metabolic Activation: RAT, LIVER, S-9, AROCLOR 1254 (10%), Method: PREINCUBATION) “inactive; negative”; (Test System: AMES SALMONELLA TYPHIMURIUM, Strain/Indicator: TA1535, Metabolic Activation: RAT, LIVER, S-9, AROCLOR 1254 (30%), Method: PREINCUBATION) “inactive; negative”.

With `CN(C)C(=O)Cl`, the mutagenic call by setting is: under setting [1], “active; positive”; (Test System: AMES SALMONELLA TYPHIMURIUM, Strain/Indicator: TA1535, Metabolic Activation: NONE, Method: STANDARD PLATE) “active; positive”; (Test System: E. COLI, Strain/Indicator: WP2 UVRA, Metabolic Activation: HAMSTER, LIVER, S-9, AROCLOR 1254, Method: PREINCUBATION) “inactive; negative”; (Test System: E. COLI, Strain/Indicator: WP2 UVRA, Metabolic Activation: HAMSTER, LIVER, S-9, AROCLOR 1254, Method: STANDARD PLATE) “inactive; negative”; (Test System: E. COLI, Strain/Indicator: WP2 UVRA, Metabolic Activation: HAMSTER, LIVER, S-9, Method: STANDARD PLATE) “inactive; negative”; (Test System: E. COLI, Strain/Indicator: WP2 UVRA, Metabolic Activation: MOUSE, LIVER, S-9, AROCLOR 1254, Method: PREINCUBATION) “inactive; negative”. Besides, the mutagenic call by setting is: (Test System: E. COLI, Strain/Indicator: WP2 UVRA, Metabolic Activation: MOUSE, LIVER, S-9, AROCLOR 1254, Method: STANDARD PLATE) “inactive; negative”; (Test System: E. COLI, Strain/Indicator: WP2 UVRA, Metabolic Activation: MOUSE, LIVER, S-9, Method: PREINCUBATION) “inactive; negative”; (Test System: E. COLI, Strain/Indicator: WP2 UVRA, Metabolic Activation: MOUSE, LIVER, S-9, Method: STANDARD PLATE) “inactive; negative”; (Test System: E. COLI, Strain/Indicator: WP2 UVRA, Metabolic Activation: NONE, Method: STANDARD PLATE) “inactive; negative”; (Test System: E. COLI, Strain/Indicator: WP2 UVRA, Metabolic Activation: RAT, LIVER, S-9, AROCLOR 1254, Method: STANDARD PLATE) “inactive; negative”; (Test System: E. COLI, Strain/Indicator: WP2 UVRA, Metabolic Activation: RAT, LIVER, S-9, Method: STANDARD PLATE) “inactive; negative”. Besides, the mutagenic call reads like this: (Test System: MOUSE LYMPHOMA, Strain/Indicator: L5178Y (TK+/TK-), Metabolic Activation: NONE, Method: SUSPENSION/PLATE) “active; positive”; (Test System: MOUSE LYMPHOMA, Strain/Indicator: L5178Y (TK+/TK-), Metabolic Activation: RAT, LIVER, S-9, AROCLOR 1254, Method: SUSPENSION/PLATE) “active; positive”.

Consider `CN(C)c1ccc(N=Nc2ccc(N(C)C)cc2)cc1`, for which the mutagenic call was “inactive; negative” (Test System: AMES SALMONELLA TYPHIMURIUM, Strain/Indicator: TA98, Metabolic Activation: RAT, LIVER, S-9, POLYCHLORINATED BIPHENYLS, Method: PREINCUBATION) and “inactive; negative” (Test System: AMES SALMONELLA TYPHIMURIUM, Strain/Indicator: TA100, Metabolic Activation: RAT, LIVER, S-9, POLYCHLORINATED BIPHENYLS, Method: PREINCUBATION).
